Laboratory results from ChEMBL document CHEMBL5634205, “Pyrazolopyridine-based kinase inhibitors for anti-cancer targeted therapy” (RSC Med Chem, 2024).

Target: T1, Tyrosine-protein kinase receptor TYRO3 (Homo sapiens, UniProt Q06418)
T1 sequence (Q06418 whole entry): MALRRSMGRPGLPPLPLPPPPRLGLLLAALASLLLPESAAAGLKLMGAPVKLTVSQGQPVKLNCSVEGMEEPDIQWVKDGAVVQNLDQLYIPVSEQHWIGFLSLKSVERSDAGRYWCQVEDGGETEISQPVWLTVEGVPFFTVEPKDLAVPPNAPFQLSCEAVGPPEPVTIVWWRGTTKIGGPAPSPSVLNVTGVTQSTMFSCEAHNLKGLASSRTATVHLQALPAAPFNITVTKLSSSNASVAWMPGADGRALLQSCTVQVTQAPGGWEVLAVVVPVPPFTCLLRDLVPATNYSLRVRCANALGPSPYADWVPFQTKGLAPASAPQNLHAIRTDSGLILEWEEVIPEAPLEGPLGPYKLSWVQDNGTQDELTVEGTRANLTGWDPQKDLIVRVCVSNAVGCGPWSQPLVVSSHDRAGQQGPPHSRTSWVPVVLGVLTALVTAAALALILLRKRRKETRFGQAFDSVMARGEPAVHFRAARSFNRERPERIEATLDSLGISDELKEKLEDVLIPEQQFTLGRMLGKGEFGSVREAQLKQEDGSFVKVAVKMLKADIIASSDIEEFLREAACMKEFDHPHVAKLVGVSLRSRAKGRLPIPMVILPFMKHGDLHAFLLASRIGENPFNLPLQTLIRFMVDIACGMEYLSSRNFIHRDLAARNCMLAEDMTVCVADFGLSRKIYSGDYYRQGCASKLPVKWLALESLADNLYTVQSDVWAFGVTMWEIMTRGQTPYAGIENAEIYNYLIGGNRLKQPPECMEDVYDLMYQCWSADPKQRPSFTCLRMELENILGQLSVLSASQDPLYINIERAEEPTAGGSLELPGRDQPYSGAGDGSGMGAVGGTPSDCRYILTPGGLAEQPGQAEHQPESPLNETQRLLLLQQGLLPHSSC
Test: Inhibition of SKY (unknown origin)

| IC50 [nM] | Structure (SMILES) |
| --- | --- |
| 3.2 | CN1C(=O)CCc2cc(NC(=O)c3n[nH]c4ccccc34)ccc21 |
| 1.2 | O=C(O)c1cccc(C(=O)Nc2n[nH]c3ncc(-c4ccc(F)cc4)cc23)c1 |
